Measurements reported in PMC3510438, “The transmembrane tyrosines Y56, Y91 and Y167 play important roles in determining the affinity and transport rate of the rabbit proton-coupled peptide transporter PepT1” (The International Journal of Biochemistry & Cell Biology, 2009).
Residue numbers refer to the chain shown, from its start. Where a SMILES comes first, the peptide text is derived from it.

Experiments:
Type in all cases: cell-based, rabbit
Y91Q-rPepT1 = biological target: T1, Y91Q-rPepT1 (Oryctolagus cuniculus, UniProt P36836, Y91Q); experiment: Competition of [3H]-D-Phe-L-Gln uptake into Xenopus oocytes, Ki; details: pHout 7.4; against 0.4 μM [3H]-D-Phe-L-Gln uptake
T1 construct: expressed in transfected cells; host or cells: Xenopus laevis oocytes injected with cRNA
T1 sequence (P36836 1-707 Y91Q): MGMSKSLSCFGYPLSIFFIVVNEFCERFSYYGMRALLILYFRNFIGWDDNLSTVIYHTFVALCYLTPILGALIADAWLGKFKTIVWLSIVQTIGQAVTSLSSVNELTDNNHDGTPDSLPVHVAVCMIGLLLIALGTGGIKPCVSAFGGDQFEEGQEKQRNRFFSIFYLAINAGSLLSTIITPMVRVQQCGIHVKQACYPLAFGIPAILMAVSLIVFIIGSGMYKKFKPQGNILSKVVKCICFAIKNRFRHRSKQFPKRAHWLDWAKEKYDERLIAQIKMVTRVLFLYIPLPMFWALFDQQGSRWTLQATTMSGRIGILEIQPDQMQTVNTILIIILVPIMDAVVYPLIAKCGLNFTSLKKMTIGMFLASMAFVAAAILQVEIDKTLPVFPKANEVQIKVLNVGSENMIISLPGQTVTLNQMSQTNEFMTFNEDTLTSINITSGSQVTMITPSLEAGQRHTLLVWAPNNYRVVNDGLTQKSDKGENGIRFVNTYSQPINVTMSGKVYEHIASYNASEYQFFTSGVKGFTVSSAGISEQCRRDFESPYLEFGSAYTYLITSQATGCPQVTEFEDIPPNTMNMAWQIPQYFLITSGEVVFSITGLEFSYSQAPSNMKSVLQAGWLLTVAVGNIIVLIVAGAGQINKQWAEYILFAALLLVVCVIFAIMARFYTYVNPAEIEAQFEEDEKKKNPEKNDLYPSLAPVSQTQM
Protocol: (§1) rPepT1 constructs were linearised with XbaI (New England Biolabs, UK) and cRNA generated by in vitro transcription (T7 mMessage mMachine, Ambion, Cambridgeshire, UK). Xenopus laevis oocytes were obtained under MS222 anaesthesia (0.2%, w/v) in accordance with the UK Animals (Scientific Procedures) Act, 1986, and maintained at 18 °C in modified Barth's medium (88 mM NaCl, 1 mM KCl, 0.82 mM MgSO4, 2.4 mM NaHCO3, 0.42 mM CaCl2, 10 mM Hepes, 5 mM sodium pyruvate, 50 μg ml^−1 gentamicin (Fluka, Poole, UK), adjusted to pH 7.6 with 1 M NaOH). Transport measurements were performed at least 72 h after micro-injection of oocytes with 27nl cRNA (1 μg/μl), with medium changed daily.
(§2) Uptake of [^3H]-D-Phe-L-Gln (17.4 Ci/mmole, custom synthesised, Cambridge Research Biochemicals, Stockton-on-Tees, UK) was performed as previously described ([Meredith, 2004]). Briefly, 5 oocytes were incubated in 100 μl of uptake medium (95 mM NaCl, 2 mM KCl, 1 mM CaCl2, 0.42 mM MgCl2, 10 mM Tris/Hepes pH 7.4 or Tris/Mes pH 5.5) with tracer (0.4 μM) [^3H]-D-Phe-L-Gln. After incubation, the oocytes were washed sequentially five times in 1 ml of ice-cold 120 mM NaCl solution, lysed individually with 100 μl 2% (w/v) SDS and liquid scintillation counted. As a control non-injected oocytes were also incubated in uptake medium with D-Phe-L-Gln as above.
The affinity of wild-type and mutant rPepT1 transporters were assessed by competition studies with 0.4 μM [^3H]-D-Phe-L-Gln and Gly-L-Gln present in the uptake medium in concentrations from 0 to 2 mM using the protocol above, and the Ki calculated using the method of [Deves and Boyd (1989)].

Y56F/T58Y-rPepT1 = biological target: T2, Y56F/T58Y-rPepT1 (Oryctolagus cuniculus, UniProt P36836, T58Y/Y56F); experiment: Uptake of tracer [3H]-D-Phe-L-Gln into Xenopus oocytes; details: both pHout 5.5 and 7.4
T2 construct: expressed in transfected cells; host or cells: Xenopus laevis oocytes injected with cRNA
T2 sequence (P36836 1-707 Y56F/T58Y): T1 sequence (P36836 1-707 Y91Q) with Y56F, T58Y, Q91Y
Protocol: as §1, §2

T58Y-rPepT1 = biological target: T3, T58Y-rPepT1 (Oryctolagus cuniculus, UniProt P36836, T58Y); experiment: as above; details: both pHout 5.5 and 7.4
T3 construct: expressed in transfected cells; host or cells: Xenopus laevis oocytes injected with cRNA
T3 sequence (P36836 1-707 T58Y): T1 sequence (P36836 1-707 Y91Q) with T58Y, Q91Y
Protocol: as §1, §2

Molecule	Ki (Y91Q-rPepT1) [µM]	reduction of uptake compared to the wild-type (Y56F/T58Y-rPepT1) [%]	reduction of transport function compared to the wild-type (T58Y-rPepT1) [%]
NCC(=O)N[C@@H](CCC(N)=O)C(=O)O [Gly-L-Gln] (H-Gly-Gln-OH)	30 ± 5		
[^3H]-D-Phe-L-Gln		> 90	> 70
